In the first data set the target is δ-opioid receptors (Homo sapiens, UniProt P41143). Conditions: relative to morphine; cited from earlier work.
Chain of μ-opioid receptors (P35372 whole entry): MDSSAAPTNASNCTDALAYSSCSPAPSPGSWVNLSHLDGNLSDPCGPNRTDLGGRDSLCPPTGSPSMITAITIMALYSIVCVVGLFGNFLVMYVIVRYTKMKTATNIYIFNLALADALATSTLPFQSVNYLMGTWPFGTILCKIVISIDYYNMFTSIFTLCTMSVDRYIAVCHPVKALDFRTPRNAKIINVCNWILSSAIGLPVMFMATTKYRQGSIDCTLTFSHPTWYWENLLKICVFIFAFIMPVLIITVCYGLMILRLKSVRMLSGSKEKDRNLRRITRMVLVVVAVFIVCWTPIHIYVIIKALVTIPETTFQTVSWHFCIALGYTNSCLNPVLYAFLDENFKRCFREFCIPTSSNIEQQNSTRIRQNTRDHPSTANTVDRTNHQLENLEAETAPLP
Chain of δ-opioid receptors (P41143 whole entry): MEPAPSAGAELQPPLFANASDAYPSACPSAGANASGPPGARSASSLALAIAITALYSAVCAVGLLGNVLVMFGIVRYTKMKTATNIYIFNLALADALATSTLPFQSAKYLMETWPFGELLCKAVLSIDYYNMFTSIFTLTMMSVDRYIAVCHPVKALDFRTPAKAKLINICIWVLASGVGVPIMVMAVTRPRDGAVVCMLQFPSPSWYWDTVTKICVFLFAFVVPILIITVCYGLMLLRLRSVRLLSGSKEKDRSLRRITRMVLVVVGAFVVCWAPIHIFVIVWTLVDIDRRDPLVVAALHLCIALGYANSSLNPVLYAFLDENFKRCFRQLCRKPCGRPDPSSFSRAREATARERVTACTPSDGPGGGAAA
For the molecule `CC[C@@H]1CN2CC[C@]3(Nc4cccc(OC)c4C3=O)[C@@H]2C[C@@H]1/C(=C\OC)C(=O)OC` [mitrogynine pseudoindoxyl], the “higher potency than morphine at δ-opioid receptors” value was 35 fold.

Test system in another data set: not given
Conditions: not given
In the case of `C=CCC1(C(=O)OC)C(=O)c2ccccc2N1C` (stereo not drawn), the melting point – broadly, the temperature, or range, at which the solid turns liquid – lay within 90 to 93 °C.
`C=CCC1(C(=O)OC)C(=O)c2c(OC)cccc2N1C` (stereo not drawn) showed a melting point of 125 to 127 °C.
As for `C=CC(C)(C)C1(C(=O)OC)C(=O)c2c(OC)cccc2N1C` (stereo not drawn), the melting point was in the range of 86 to 88 °C.
The molecule `C=CC(C)C1(C(=O)OC)C(=O)c2c(OC)cccc2N1C` (stereo not drawn) yielded a melting point of 89 to 91 °C.
On to `C=CCC1(C(=O)OC)C(=O)c2c(C)cccc2N1C` (stereo not drawn), for which the melting point fell in the range of 98 to 100 °C.
Same read-out and setting: to `C=CCC1(C(=O)OC)C(=O)c2c(ccc3ccccc23)N1C` (stereo not drawn) belongs 144 to 147 °C; to `C=CCC1(C(=O)OC)C(=O)c2cc(OC)ccc2N1C` (stereo not drawn), 99 to 101 °C.

A further data set has as its target μ-opioid receptors (Homo sapiens, UniProt P35372). Conditions: relative to morphine; cited from earlier work.
In the case of `CC[C@@H]1CN2CC[C@]3(Nc4cccc(OC)c4C3=O)[C@@H]2C[C@@H]1/C(=C\OC)C(=O)OC` [mitrogynine pseudoindoxyl], the “higher potency than morphine at μ-opioid receptors” value is on record as 20 fold.

The record behind these values is patent US20230087351A1, “METHYL 2-ALLYL-1 -METHYL-3-OXOINDOLINE-2-C[…] 9A-ALLYL-1,2,3,9A-TETRAHYDRO- 9H-PYRROLO[1,2-A]INDOL-9-ONE DERIVATIVES AND RELATED COMPOUNDS FOR USE AS F[…] FOR LABELLING OF DRUGS, AMINO ACIDS AN PROTEINS” (UNIVERSITY OF SALFORD, priority 2019, published 2023).
